Biological target: HSV-1 TK (Human alphaherpesvirus 1 strain KOS, UniProt P17402)
Assay: Thymidine kinase inhibitory assay
Assay type: biochemical
Conditions: 1 μM [^3 H]thymidine, 5 mM ATP, pH 7.5, 37° C., 1 hour; 0-20 μM inhibitor; slope replots of Lineweaver-Burk plots
Method: The reaction (50 μl) was performed in: 50 mM Tris-HCl pH 7.5, 5 mM MgCl2, 30 mM KCl, 2 mM dithiothreitol, 5 mM ATP, 1 μM [^3 H]thymidine, 0-20 μM potential inhibitor, 0.075 mg/ml bovine serum albumin, 0.1 unit/ml HSV-1 TK. Incubation was at 37° C. for 1 hour. Samples (40 μl) were spotted on DE-81 filter disks, washed with 1 mM ammonium formate (pH 7), three times with water, twice with ethanol, and dried. Radioactivity was quantitated in a scintillation counter.
TK (thymidine kinase) was affinity purified from HSV-1 (KOS) infected cells by published procedures (Fyfe (1982) Mol. Pharmacol. 21:432-437 and Field et al. (1990) Antiviral Res. 13:41-52). One unit is defined as 1 nanomole thymidine phosphorylated per hour.
In Table 2, inhibition constants were determined from slope replots (1/slope vs [I]) of Lineweaver-Burk plots. "N" indicates the number of experiments, and each experiment was done in triplicate.

Chain of HSV-1 TK (P17402 whole entry, looked up): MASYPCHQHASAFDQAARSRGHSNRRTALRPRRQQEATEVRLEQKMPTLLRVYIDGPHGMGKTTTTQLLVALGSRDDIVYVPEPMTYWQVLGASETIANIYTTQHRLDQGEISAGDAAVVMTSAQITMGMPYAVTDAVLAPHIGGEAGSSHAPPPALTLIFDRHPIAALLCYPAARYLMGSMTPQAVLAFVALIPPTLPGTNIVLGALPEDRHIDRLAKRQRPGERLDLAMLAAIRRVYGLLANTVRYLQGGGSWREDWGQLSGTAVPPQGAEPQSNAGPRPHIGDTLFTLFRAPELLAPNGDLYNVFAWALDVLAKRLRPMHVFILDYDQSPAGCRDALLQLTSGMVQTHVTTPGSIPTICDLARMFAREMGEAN

Compound | Ki
Cc1cn([C@H]2C[C@H](O)[C@@H](OCCc3ccccc3)O2)c(=O)[nH]c1=O [Compound 12] | 26 µM
CO[C@H]1O[C@@H](n2cc(C)c(=O)[nH]c2=O)C[C@@H]1O (single isomer, unassigned) [Compound 2] | 3.2 ± 0.3 µM
Cc1cn([C@H]2C[C@@H](O)[C@H](OCCc3ccccc3)O2)c(=O)[nH]c1=O [Compound 13] | 4.3 ± 1.8 µM
Cc1cn([C@H]2C[C@@H](O)[C@H](OCc3ccc(Br)cc3)O2)c(=O)[nH]c1=O [Compound 16] | 10.1 ± 4.7 µM

Reference: patent publication US5306722A, “Thymidine derivatives and therapeutic method of use” (Bristol-Myers Squibb Company, priority 1992, dated 1994)
